Test results from patent US20220089655A1, “NOVEL POLYPEPTIDE-MODIFYING ENZYMES AND USES THEREOF” (ETH ZURICH, priority 2018, published 2022).
Starred links: 1 amine or outer side, 2 acyl side, 3 side chain; linkers in the order of their positions; H or OH if unused. Non-standard residues stand in square brackets, D forms with d. No end group written: not given here. *: point of attachment. X1 = CC(C)C(C)[C@H](N[*:1])C(=O)[*:2]; Ile(3-Me) = CCC(C)(C)[C@H](N)C(=O)O; d(aThr) = C[C@@H](O)[C@@H](N)C(=O)O; Butanoyl(2-oxo) = CCC(=O)C(=O)*; Tle = CC(C)(C)[C@H](N)C(=O)O

How the values were obtained:
[1] = test system: bacteria; assay: Activity towards bacteria
[2] = Cytotoxic assay (MTT) against HeLa cells; format: cell-based; conditions: 3 days incubation, MTT readout
Procedure: The activity of aeronamide A was measured against HeLa cells. Stocked HeLa cells were resuspended in 10 mL HEPES buffered high glucose Dulbecco's Modified Eagle Medium (DMEM) supplemented with GlutaMAX (Gibco). Additionally, the medium contained 10% fetal calf serum (FCS) and […] gentamycin. The cells were centrifuged for 5 min at 1000×g and room temperature. The medium was discarded and the cells resuspended in 10 mL fresh medium. The cells were put in a culture dish and incubated for 3-4 days at 37° C. The cells were checked under the microscope and treated further only when 60-80% of the surface was covered with cells. The medium was removed from the culture flask and the cells were washed with 10 mL phosphate buffered saline (PBS). The PBS was discarded and the cells treated with 2 mL Trypsin-EDTA solution. When the cells were detached, 10 mL of medium was added and centrifuged for 5 min at 1000×g and room temperature. The supernatant was discarded and 10 mL fresh medium were added. 2 mL of the cell suspension were put in a fresh culture flask containing 10 mL medium. Cells healthy enough for cytotoxicity assays were counted and diluted to a 10,000 cells/mL solution. 96 well plates were filled with 200 μL cell suspension per well. All plates were incubated overnight at 37° C. […] Absorbance was measured at 570 nm and IC50 was calculated using GraphPad Prism 6 (GraphPad).

[3] = test system: fungi; assay: Activity towards fungi

Substance: {Butanoyl(2-oxo)}-[Ile(3-Me)][dA][Tle][dV][X1][dV]A[dV][Tle]GA[dA]A[dA]A[dV][Tle][d(aThr)]Y[dL]G[dA]A[dD](NHMe)[Tle][dV]G[dA]A[dD](NHMe)G[d(aThr)][Tle][d(aThr)]A[dD](NHMe)A[dV]A[dD](NHMe)T[dD](NHMe)A[dV]A [Aeronamide A]
- cytotoxic activity towards bacteria [1]: not towards the bacteria and fungi
- IC50 [2]: 1.48 nM
- cytotoxic activity towards fungi [3]: not towards the bacteria and fungi
